Reference: paper PMC7719162, “Positioning of an unprecedented spiro[5.5]undeca ring system into kinase inhibitor space” (Scientific Reports, 2020)
Like-named read-outs stand apart in the source and are kept apart here. Values belong to the compound of their own block, whether it stands above or below them.

Assays:
PI3KC3 = biological target: T1, PI3KC3 (Homo sapiens, UniProt Q8NEB9); test: Kinase panel assay (lipid kinase); assay type: biochemical; conditions: control PIK-93
T1 construct: purchased Reaction Biology Corp
T1 sequence (Q8NEB9 whole entry): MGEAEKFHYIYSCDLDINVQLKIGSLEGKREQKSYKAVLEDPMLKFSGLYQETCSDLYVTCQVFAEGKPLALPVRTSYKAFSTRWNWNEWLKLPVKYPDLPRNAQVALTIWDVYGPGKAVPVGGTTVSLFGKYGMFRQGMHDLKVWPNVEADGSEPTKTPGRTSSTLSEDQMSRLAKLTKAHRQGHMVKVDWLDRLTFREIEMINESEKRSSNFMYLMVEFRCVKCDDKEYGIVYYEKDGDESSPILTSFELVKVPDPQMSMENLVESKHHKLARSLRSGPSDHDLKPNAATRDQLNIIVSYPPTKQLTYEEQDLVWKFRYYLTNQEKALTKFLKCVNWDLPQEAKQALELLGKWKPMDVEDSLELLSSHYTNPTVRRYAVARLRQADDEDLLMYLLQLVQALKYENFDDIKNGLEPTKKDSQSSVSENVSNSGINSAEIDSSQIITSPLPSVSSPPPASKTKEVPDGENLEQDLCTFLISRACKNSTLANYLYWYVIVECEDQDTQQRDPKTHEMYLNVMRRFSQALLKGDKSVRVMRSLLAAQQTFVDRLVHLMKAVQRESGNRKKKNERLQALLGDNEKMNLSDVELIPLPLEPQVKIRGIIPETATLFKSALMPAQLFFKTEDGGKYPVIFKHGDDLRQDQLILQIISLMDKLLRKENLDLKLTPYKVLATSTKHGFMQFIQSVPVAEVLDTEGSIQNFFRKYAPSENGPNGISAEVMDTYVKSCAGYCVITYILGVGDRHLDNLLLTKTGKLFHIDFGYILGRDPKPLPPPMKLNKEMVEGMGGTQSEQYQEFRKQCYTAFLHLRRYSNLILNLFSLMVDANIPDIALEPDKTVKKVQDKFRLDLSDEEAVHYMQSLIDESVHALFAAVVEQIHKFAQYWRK
Protocol: (§1) Every inhibitory activity of tested compounds was measured by radiolabelled method of Reaction Biology Corp). The radiolabelled ATP ([γ-^33P] ATP) replaced a substrate with ^33P-phosphorylated substrate so that the activity of a kinase was measured from the radiolabelled phosphorylated substrate. Kinase panel assay was tested at 30 μM testing compounds with an ATP concentration of 10 μM and a substrate concentration of 10 μM. % Residual activity against GSK3β was measured at 10 uM compounds 1 and 2. […] Curve fits of control compounds were performed where the enzyme activities at the highest concentration of compounds were less than 65%. The concentration of DMSO was controlled and raw data, % kinase activity was calculated relative to DMSO controls.

PI4K2A = biological target: T2, PI4K2A (Homo sapiens, UniProt Q9BTU6); test: Kinase panel assay (lipid kinase); assay type: biochemical; conditions: control PIK-93
T2 construct: purchased Reaction Biology Corp
T2 sequence (Q9BTU6 whole entry): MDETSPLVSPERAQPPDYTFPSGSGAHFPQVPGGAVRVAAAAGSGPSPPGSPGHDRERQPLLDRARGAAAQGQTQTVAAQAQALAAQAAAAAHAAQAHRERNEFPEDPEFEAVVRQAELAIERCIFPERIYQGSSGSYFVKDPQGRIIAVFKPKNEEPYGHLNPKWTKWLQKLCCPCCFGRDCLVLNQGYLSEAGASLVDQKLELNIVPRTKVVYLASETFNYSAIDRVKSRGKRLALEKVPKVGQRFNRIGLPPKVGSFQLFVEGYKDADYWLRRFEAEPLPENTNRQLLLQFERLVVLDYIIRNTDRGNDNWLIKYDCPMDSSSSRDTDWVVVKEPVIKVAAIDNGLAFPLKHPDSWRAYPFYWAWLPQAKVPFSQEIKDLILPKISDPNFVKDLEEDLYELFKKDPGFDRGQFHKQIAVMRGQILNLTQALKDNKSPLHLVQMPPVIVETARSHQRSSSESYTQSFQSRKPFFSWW
Protocol: as §1

PIP5K1A = biological target: T3, PIP5K1A (Homo sapiens, UniProt Q99755); test: Kinase panel assay (lipid kinase); assay type: biochemical; conditions: control PIK-93
T3 construct: purchased Reaction Biology Corp
T3 sequence (Q99755 whole entry): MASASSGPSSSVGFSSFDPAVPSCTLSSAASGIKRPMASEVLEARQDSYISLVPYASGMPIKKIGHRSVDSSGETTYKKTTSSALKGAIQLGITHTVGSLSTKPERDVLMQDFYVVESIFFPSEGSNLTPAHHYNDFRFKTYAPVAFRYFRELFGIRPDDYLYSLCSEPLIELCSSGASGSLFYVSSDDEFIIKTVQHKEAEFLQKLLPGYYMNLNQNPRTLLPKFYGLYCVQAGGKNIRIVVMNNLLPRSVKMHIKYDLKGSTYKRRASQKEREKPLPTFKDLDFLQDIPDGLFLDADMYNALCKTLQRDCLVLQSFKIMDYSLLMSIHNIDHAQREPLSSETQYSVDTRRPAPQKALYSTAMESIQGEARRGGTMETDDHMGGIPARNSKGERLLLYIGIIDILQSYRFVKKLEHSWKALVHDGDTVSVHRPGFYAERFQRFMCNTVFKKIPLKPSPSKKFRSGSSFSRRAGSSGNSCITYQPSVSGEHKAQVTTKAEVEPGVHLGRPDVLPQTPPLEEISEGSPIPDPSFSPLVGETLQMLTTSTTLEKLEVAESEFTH
Protocol: as §1

PIP5K1C = biological target: T4, PIP5K1C (Homo sapiens, UniProt O60331); test: Kinase panel assay (lipid kinase); assay type: biochemical; conditions: control PIK-93
T4 construct: purchased Reaction Biology Corp
T4 sequence (O60331 whole entry): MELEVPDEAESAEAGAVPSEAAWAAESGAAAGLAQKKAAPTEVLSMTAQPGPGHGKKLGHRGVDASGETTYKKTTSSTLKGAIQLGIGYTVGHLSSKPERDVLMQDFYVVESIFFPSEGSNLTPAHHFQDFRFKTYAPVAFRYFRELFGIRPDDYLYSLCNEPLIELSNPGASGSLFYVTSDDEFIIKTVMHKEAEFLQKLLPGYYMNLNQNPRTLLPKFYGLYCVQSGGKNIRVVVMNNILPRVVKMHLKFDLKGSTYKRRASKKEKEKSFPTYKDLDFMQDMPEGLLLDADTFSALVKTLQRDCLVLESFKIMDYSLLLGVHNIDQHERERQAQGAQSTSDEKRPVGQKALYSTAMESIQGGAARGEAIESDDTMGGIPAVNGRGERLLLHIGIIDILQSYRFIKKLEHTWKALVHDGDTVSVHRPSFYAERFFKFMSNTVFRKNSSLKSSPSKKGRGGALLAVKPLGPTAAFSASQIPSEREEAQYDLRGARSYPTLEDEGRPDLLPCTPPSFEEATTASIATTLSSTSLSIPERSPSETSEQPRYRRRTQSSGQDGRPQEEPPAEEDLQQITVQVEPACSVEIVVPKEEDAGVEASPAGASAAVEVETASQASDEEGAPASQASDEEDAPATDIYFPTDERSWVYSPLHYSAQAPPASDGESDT
Protocol: as §1

GSK3β = GSK3β (Homo sapiens, UniProt P49841); test: GSK3β radiolabelled kinase assay (% residual activity, IC50, ATP competition); assay type: biochemical; conditions: at 10 μM compound
Sequence of GSK3β (P49841 whole entry): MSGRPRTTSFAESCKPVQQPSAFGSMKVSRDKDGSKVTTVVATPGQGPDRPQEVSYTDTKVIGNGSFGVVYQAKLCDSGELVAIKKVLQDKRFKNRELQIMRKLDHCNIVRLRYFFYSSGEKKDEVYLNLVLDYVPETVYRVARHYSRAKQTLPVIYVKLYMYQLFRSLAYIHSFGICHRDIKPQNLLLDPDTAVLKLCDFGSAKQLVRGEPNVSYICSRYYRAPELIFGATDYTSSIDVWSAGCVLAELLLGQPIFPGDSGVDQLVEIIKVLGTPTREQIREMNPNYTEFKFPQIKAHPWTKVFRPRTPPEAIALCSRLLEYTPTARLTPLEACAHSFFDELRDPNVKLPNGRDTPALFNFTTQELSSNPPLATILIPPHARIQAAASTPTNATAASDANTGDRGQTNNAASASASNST

[1] = system: NO production in LPS-activated BV-2 cells; test: NO production assay (Griess) in LPS-activated BV-2 cells; assay type: cell-based, murine; conditions: read-out: NO Inhibition IC50
Protocol: (§2) 3-(4,5-dimethylthiazol-2-yl)-2,5-diphenyl-tetrazolium bromide (MTT) assay was performed to evaluate the cytotoxicity of the samples to the microglia. BV2 cells at the density of 4 × 10^4 cells /well were seeded in the 96 well plate and incubated for 24 h. Seeded cells were pre-treated with different concentration of the samples, and LPS (100 ng/ml) activation was performed after 30 min of compound treatment. Treated plate were incubated for 24 h in the incubator and nitric oxide assay and cell viability assay was performed. Treated cell’s conditioned medium was used to evaluate the NO assay, and the attached cells were used to evaluate the cell viability assay. 50 µL of conditioned medium (CM) from treated cells were transferred to a new 96 well plate for NO assay. This CM was mixed with the equal volume of the mixture of Gries reagent ((1% sulfanilamide and 0.1% N-1-napthylethylenediamine dihydrochloride). NaNO2 was used as standard and the colorimetric change were evidenced by measuring its OD at 540 nm in a microplate reader. The cells in the plate were incubated for 1 h with MTT solution making it the final concentration of […]. Blue stained cells were incubated with 200 ul of DMSO and the solution get changed to purple/formazan color and it was observed by measuring the absorbance at 570 nm in a microplate reader.NG-mono-methyl-L-arginine (L-NMMA), a well-known nitric oxide synthase (NOS) inhibitor, was used as a positive control.

MTT cell viability assay = assay type: cell-based, murine; conditions: mouse, BV-2 microglia cells (LPS-activated), mean ± SD
Protocol: as §2

iNOS = test: Western blot of iNOS in LPS-induced BV-2 cells; assay type: cell-based, murine; conditions: 0.01 to 1 uM, LPS-induced BV-2 cells
Protocol: (§3) Western blot analysis was performed to see the protein expression of the iNOS and COX-2 in the BV2 cells. BV2 cells were seeded in a 6 well plate at the density of 6 × 10^5 cells/well overnight and cells were treated as mentioned earlier in the cell treatment section and this time treatment was performed for 6 h only. After 6 h, cells were harvested and lysed with lysis buffer containing (RIPA, protease inhibitor & phosphatase inhibitor), protein estimation was performed using biorad assay and the 30 µg of total protein was separated by 8% SDS-PAGE gel electrophoresis, transferred to nitrocellulose membranes, and incubated with primary antibodies against tubulin, iNOS, COX-2, and α-tubulin. […] membranes were incubated with horseradish peroxidase-conjugated secondary antibodies, and protein bands were visualized using ECL Western Blotting Detection Reagents (Amersham Pharmacia Biotech). Quantitative analysis of the protein bands was quantified using Image Master 2D Elite software (version 3.1, Amersham Pharmacia Biotech).

COX-2 = test: Western blot of COX-2 in LPS-induced BV-2 cells; assay type: cell-based, murine; conditions: 0.01 to 1 uM
Protocol: as §3

BV-2 cells = test: MTT cell viability assay; assay type: cell-based, murine; conditions: 5 μM compound, % of LPS, mean ± SD
Protocol: as §2

PI3KC2A = biological target: T5, PI3KC2A (Homo sapiens, UniProt O00443); test: Kinase panel assay (lipid kinase); assay type: biochemical; conditions: read-out: IC50 (M) of Control (+)
T5 construct: purchased Reaction Biology Corp
T5 sequence (O00443 whole entry): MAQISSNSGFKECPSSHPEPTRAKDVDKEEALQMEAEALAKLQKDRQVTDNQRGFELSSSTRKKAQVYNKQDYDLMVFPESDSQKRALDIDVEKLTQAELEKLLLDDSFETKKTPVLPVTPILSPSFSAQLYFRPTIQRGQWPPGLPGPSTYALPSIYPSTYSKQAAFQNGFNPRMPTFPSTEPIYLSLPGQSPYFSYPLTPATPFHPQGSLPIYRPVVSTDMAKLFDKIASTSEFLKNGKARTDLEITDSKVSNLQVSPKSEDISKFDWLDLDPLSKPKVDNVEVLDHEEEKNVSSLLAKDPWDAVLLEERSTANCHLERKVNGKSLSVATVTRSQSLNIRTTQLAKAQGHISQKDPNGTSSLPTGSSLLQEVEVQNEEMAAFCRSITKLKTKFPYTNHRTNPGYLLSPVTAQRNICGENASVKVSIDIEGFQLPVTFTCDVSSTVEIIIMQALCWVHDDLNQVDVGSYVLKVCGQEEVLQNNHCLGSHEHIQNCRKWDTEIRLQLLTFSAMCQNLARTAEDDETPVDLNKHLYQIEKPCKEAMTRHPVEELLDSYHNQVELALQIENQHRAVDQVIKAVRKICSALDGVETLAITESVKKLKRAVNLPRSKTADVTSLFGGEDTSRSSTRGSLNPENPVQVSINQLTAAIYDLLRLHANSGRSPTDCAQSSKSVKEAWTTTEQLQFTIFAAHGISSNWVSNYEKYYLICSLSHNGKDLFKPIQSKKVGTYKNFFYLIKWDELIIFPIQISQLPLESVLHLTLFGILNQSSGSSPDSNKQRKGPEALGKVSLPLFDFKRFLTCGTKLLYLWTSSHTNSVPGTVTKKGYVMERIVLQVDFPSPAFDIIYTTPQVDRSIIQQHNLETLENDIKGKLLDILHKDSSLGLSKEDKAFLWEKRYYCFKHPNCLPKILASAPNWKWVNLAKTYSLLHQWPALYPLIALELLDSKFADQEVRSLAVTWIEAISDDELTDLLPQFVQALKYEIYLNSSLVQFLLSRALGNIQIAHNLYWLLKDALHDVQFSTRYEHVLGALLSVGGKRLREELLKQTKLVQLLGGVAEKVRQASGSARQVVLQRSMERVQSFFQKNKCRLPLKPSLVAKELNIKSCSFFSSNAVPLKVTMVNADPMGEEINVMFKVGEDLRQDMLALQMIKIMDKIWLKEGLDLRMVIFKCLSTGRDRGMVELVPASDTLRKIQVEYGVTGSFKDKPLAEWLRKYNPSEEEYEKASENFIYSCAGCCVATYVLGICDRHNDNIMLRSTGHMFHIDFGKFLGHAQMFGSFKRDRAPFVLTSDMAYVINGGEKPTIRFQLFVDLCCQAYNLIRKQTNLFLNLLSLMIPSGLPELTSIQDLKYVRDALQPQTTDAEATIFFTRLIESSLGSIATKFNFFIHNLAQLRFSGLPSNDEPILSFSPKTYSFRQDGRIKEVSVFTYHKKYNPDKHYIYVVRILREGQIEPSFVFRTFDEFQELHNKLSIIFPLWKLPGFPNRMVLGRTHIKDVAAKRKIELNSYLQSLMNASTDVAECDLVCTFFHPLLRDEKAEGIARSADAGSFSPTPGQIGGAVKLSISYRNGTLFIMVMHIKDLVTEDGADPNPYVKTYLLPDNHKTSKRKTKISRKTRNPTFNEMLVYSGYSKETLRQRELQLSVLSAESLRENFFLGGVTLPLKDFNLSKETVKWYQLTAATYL
Protocol: as §1

SMILES: CC(=O)Nc1nc(C)c(-c2ccc(Cl)c(S(=O)(=O)NCCO)c2)s1 [PIK-93, reference compound]
IC50 (PI3KC3): 0.0757 µM
IC50 (PI4K2A): 18.5 µM
IC50 (PIP5K1A): 61.8 µM
IC50 (PIP5K1C): 17.5 µM

SMILES: O=C1C=CC2(C=C1)OCC(Cc1cn(-c3ccccc3)nn1)C(=O)N2c1ccccc1 (centres unmarked) [2a, 5-Phenyl-3-((1-phenyl-1H-1,2,3-triazol-4-yl)methyl)-1-oxa-5-azaspiro[5.5]undeca-7,10-diene-4,9-dione]
remaining activity at 10 µM (GSK3β): 62.3 ± 2.3%
IC50 ([1]; Mus musculus): 0.67 ± 0.05 µM
viability at 24 h, 1 µM (MTT cell viability assay; 1 μM compound): 92.9 ± 0.24%
viability at 24 h, 5 µM (MTT cell viability assay; 5 μM compound, % of LPS): 81 ± 3%
iNOS expression level (iNOS): limited potency and efficacy
COX-2 expression level (COX-2): limited potency and efficacy

% GSK3β Residual Activity (GSK3β): 91.0 ± 12.6%
IC50 [1]: 0.98 ± 0.03 µM
SMILES: O=C1C=CC2(C=C1)OCC(Cc1ccccc1CS(=O)(=O)c1ccccc1)C(=O)N2c1ccccc1 (centres unmarked) [1b]
Cell Viability (%) (BV-2 cells): 84 ± 3%

IC50 (PI3KC2A): 4.8e-07 M
SMILES: Oc1cccc(-c2nc(N3CCOCC3)c3oc4ncccc4c3n2)c1 [PI-103, reference compound]
